Read-outs that look alike come from different tables or passages of the source.
How the values were obtained:
Assay type in all cases: biochemical
Xa = Xa (Homo sapiens, UniProt P00742); experiment: Determination of inhibition constants for Xa
Procedure: (§1) The inhibitory effect for the individual enzymes was determined in analogy to a previously disclosed method (Stürzebecher et al., 1997).
(§2) For zero order kinetics, the reaction was stopped after 20 min by adding 25 μl of acetic acid (50% v/v), and the absorption at 405 nm was determined using a Microplate Reader (Multiscan Ascent, from Thermo). In the case of pseudo-first order kinetics, the reaction rates in the equilibrium state were ascertained by recording the reaction kinetics. The Ki values were ascertained either in accordance with Dixon (1953) by linear regression using a computer program or by parameter fitting in accordance with the rate equation for competitive inhibition. The Ki values are the average of at least two determinations.

Thrombin = Thrombin (Homo sapiens, UniProt P00734); experiment: Determination of inhibition constants for thrombin
Procedure: as §1, §2

plasmin = plasmin (Homo sapiens, UniProt P00747); experiment: Determination of inhibition constants for plasmin; set-up: purchased Calbiochem
Procedure: as §1, §2

plasma kallikrein = plasma kallikrein (Homo sapiens, UniProt P03952); experiment: Determination of inhibition constants for PK; set-up: purchased Enzyme Research Lab. / Enzyme Research Laboratories
Procedure: as §1, §2

[1] = 25° C., substrate Chromozym PL, pH 8.0, read-out: Plasmin [Ki]
[2] = 25° C., substrate S2302, pH 8.0, read-out: PK [Ki]
[3] = summary of results, read-out: Ki value of the plasmin inhibition

Xa, sequence (P00742 235-488 limits assumed): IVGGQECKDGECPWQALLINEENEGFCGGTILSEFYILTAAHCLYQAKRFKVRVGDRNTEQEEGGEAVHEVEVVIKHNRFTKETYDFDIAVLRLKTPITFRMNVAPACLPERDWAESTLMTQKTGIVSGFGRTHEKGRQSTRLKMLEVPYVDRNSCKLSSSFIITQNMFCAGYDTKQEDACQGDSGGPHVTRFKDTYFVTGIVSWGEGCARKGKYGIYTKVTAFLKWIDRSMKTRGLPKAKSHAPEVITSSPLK
Xa, sequence (P00742 41-179 limits assumed): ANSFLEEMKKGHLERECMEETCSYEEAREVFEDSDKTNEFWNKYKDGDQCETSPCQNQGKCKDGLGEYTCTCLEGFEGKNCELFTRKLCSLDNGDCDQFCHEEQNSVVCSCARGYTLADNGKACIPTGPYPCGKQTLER
plasmin, sequence (P00747 581-810 limits assumed): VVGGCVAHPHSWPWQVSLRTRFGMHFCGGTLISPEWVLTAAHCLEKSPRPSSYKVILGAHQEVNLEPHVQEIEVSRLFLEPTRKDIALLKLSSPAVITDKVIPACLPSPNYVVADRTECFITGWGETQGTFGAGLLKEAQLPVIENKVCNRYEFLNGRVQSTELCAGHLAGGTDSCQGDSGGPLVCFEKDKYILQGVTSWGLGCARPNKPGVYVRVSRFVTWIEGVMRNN
plasmin, sequence (P00747 97-580 partner limits assumed): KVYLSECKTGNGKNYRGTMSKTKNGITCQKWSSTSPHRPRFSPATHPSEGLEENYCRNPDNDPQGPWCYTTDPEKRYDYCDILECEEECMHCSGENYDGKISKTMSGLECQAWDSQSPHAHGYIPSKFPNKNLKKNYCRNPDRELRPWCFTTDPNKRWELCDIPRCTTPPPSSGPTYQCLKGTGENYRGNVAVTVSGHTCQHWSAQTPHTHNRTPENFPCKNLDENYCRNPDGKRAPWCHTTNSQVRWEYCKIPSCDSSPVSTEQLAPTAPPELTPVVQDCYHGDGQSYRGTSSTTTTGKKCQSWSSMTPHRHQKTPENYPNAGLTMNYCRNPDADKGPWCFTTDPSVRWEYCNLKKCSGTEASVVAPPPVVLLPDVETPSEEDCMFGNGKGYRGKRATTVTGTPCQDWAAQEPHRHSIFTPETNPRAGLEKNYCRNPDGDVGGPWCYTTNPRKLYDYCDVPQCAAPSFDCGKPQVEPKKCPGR
plasma kallikrein, sequence (P03952 391-638 limits assumed): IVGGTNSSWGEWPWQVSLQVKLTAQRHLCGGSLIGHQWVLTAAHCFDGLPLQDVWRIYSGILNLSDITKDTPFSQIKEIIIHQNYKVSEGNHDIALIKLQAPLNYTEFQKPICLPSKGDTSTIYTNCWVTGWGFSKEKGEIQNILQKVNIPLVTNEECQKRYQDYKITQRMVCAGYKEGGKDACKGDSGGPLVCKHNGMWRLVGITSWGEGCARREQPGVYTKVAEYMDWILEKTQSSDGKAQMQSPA
plasma kallikrein, sequence (P03952 20-390 partner limits assumed): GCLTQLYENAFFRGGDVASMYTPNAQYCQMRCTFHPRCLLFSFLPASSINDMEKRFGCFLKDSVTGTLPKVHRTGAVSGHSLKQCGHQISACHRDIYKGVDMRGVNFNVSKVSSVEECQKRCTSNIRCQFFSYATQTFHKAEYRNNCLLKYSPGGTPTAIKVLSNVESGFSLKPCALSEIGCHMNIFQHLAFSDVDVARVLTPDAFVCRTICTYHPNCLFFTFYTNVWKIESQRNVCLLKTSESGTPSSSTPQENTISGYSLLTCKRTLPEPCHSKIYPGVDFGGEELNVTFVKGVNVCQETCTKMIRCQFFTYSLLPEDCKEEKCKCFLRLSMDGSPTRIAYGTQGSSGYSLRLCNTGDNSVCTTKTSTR

| Molecule | Ki (Xa) | Ki (Thrombin) | Ki (plasmin; [1]) | Ki (plasma kallikrein; [2]) | Ki (plasmin; [3]) | Ki (plasma kallikrein; summary of results, read-out: Ki value of the plasma kallikrein inhibition) |
| --- | --- | --- | --- | --- | --- | --- |
| N=C(N)c1ccc(CNC(=O)[C@H](CCc2cc[n+]([O-])cc2)NC(=O)[C@@H](CCCc2ccccc2)NS(=O)(=O)Cc2cccc(C(=O)O)c2)cc1 [compound 42] | > 1000 nM | < 1000 nM | < 100 nM | < 10 nM | – | – |
| COC(=O)c1ccc(CS(=O)(=O)N[C@H](CO)C(=O)N[C@@H](Cc2cccc(CN)c2)C(=O)NCc2ccc(C(=N)N)cc2)cc1 [compound 69] | > 1000 nM | > 1000 nM | < 100 nM | < 10 nM | – | – |
| Bzls-d-Gly(3-O-Phpr)-Phe(3-Ame)-4-Amba×2 TFA [compound 6] | < 100 nM | < 1000 nM | < 10 nM | < 10 nM | – | – |
| N=C(N)c1ccc(CNC(=O)[C@H](Cc2cccc(CN)c2)NC(=O)[C@@H](CCCc2ccc(Cl)cc2)NS(=O)(=O)Cc2ccccc2)cc1 [compound 7] | < 10 nM | < 100 nM | < 10 nM | < 10 nM | – | – |
| N=C(N)c1ccc(CNC(=O)[C@H](Cc2cccc(CN)c2)NC(=O)[C@@H](CN)NS(=O)(=O)Cc2ccccc2)cc1 [compound 61] | > 1000 nM | > 1000 nM | < 100 nM | < 10 nM | – | – |
| N=C(N)c1ccc(CNC(=O)[C@H](Cc2cccc(CN)c2)NC(=O)[C@@H](CCCCN)NS(=O)(=O)Cc2ccccc2)cc1 [compound 59] | < 1000 nM | > 1000 nM | < 100 nM | < 10 nM | – | – |
| N=C(N)c1ccc(CC[C@H](NC(=O)[C@@H](CC2CCCCC2)NS(=O)(=O)Cc2ccccc2)C(=O)NCc2ccc(C(=N)N)cc2)cc1 [compound 38] | < 100 nM | < 10 nM | < 10 nM | < 100 nM | < 5 nM | – |
| Cc1ccc(CCC[C@@H](NS(=O)(=O)Cc2ccccc2)C(=O)N[C@@H](Cc2cccc(CN)c2)C(=O)NCc2ccc(C(=N)N)cc2)cc1 [compound 9] | < 100 nM | < 1000 nM | < 10 nM | < 10 nM | – | – |
| N=C(N)c1ccc(CNC(=O)[C@H](Cc2cccc(CN)c2)NC(=O)[C@@H](CCCc2ccc(C(F)(F)F)cc2)NS(=O)(=O)Cc2ccccc2)cc1 [compound 11] | < 10 nM | < 1000 nM | < 10 nM | < 10 nM | – | – |
| CC(C)(C)OC[C@@H](NS(=O)(=O)Cc1ccccc1)C(=O)N[C@@H](Cc1cccc(CN)c1)C(=O)NCc1ccc(C(=N)N)cc1 [compound 63] | < 1000 nM | < 1000 nM | < 10 nM | < 10 nM | – | – |
| N=C(N)c1ccc(CNC(=O)[C@H](CCc2cccc(CN)c2)NC(=O)[C@@H](CO)NS(=O)(=O)Cc2ccccc2)cc1 [compound 74] | > 1000 nM | > 1000 nM | < 100 nM | < 100 nM | – | – |
| N=C(N)Nc1ccc(CNC(=O)[C@H](Cc2cccc(CN)c2)NC(=O)[C@@H](CCCc2ccccc2)NS(=O)(=O)Cc2cccc(C(=O)O)c2)cc1 [compound 4, 3-HOOC-Bzls-d-Ppg-Phe(3-Ame)-4-guanidinobenzylamide×2 acetate] | > 1000 nM | > 1000 nM | < 100 nM | < 10 nM | – | – |
| N=C(N)c1ccc(CNC(=O)[C@H](Cc2ccc(C(=N)N)cc2)NC(=O)[C@@H](CO)NS(=O)(=O)Cc2ccccc2)cc1 [compound 76] | > 1000 nM | > 1000 nM | < 100 nM | < 100 nM | – | – |
| CC(C)(C)OC[C@@H](NS(=O)(=O)Cc1cccc(C(=O)O)c1)C(=O)N[C@@H](Cc1cccc(CN)c1)C(=O)NCc1ccc(C(=N)N)cc1 [compound 67] | < 100 nM | > 1000 nM | < 10 nM | < 10 nM | – | – |
| N=C(N)c1ccc(CNC(=O)[C@H](CCc2ccccc2)NC(=O)[C@@H](CCCc2ccncc2)NS(=O)(=O)Cc2ccccc2)cc1 [compound 49] | < 100 nM | < 100 nM | < 10 nM | < 10 nM | – | – |
| N=C(N)c1ccc(CNC(=O)[C@H](Cc2cccc(CN)c2)NC(=O)[C@@H](CCCc2ccccc2Cl)NS(=O)(=O)Cc2ccccc2)cc1 [compound 8] | < 100 nM | < 100 nM | < 10 nM | < 10 nM | – | – |
| N=C(N)c1ccc(CNC(=O)[C@H](Cc2cccc(CN)c2)NC(=O)[C@H](NS(=O)(=O)Cc2ccccc2)C(c2ccccc2)c2ccccc2)cc1 [compound 22] | < 100 nM | < 10 nM | < 10 nM | < 10 nM | – | – |
| N=C(N)c1ccc(CNC(=O)[C@H](Cc2cccc(CN)c2)NC(=O)[C@H](NS(=O)(=O)Cc2cccc(C(=O)O)c2)C(c2ccccc2)c2ccccc2)cc1 [compound 23] | < 100 nM | < 100 nM | < 10 nM | < 10 nM | – | – |
| N=C(N)c1ccc(CNC(=O)[C@H](Cc2cccc(CN)c2)NC(=O)[C@@H](Cc2cccc3ccccc23)NS(=O)(=O)Cc2ccc(C(=O)O)cc2)cc1 [compound 16] | < 1000 nM | < 1000 nM | < 10 nM | < 10 nM | – | – |
| N=C(N)c1ccc(CNC(=O)[C@H](CCc2ccncc2)NC(=O)[C@@H](CCCc2ccccc2)NS(=O)(=O)Cc2ccccc2)cc1 [compound 39] | < 100 nM | < 10 nM | < 10 nM | < 10 nM | < 5 nM | < 1 nM |
| N=C(N)c1ccc(CNC(=O)[C@H](Cc2cccc(CN)c2)NC(=O)[C@@H](CCCc2ccc(OC(F)(F)F)cc2)NS(=O)(=O)Cc2ccccc2)cc1 [compound 12] | < 100 nM | < 1000 nM | < 10 nM | < 10 nM | – | – |

Further lines, results first:

| Ki (Xa) | Ki (Thrombin) | Ki (plasmin; [1]) | Ki (plasma kallikrein; [2]) | Ki (plasmin; [3]) | Ki (plasma kallikrein; summary of results, read-out: Ki value of the plasma kallikrein inhibition) | Molecule |
| --- | --- | --- | --- | --- | --- | --- |
| > 1000 nM | > 1000 nM | < 100 nM | < 10 nM | – | – | N=C(N)c1ccc(CC[C@H](NC(=O)[C@@H](CO)NS(=O)(=O)Cc2ccccc2)C(=O)NCc2ccc(C(=N)N)cc2)cc1 [compound 78] |
| < 100 nM | < 1000 nM | < 10 nM | < 10 nM | – | – | N=C(N)c1ccc(CNC(=O)[C@H](Cc2cccc(CN)c2)NC(=O)[C@@H](CCCc2ccccc2)NS(=O)(=O)Cc2ccc(C(=O)O)cc2)cc1 [compound 2] |
| < 100 nM | < 1000 nM | < 10 nM | < 10 nM | – | – | N=C(N)c1ccc(CNC(=O)[C@H](CCc2ccccc2)NC(=O)[C@@H](CCCc2ccncc2)NS(=O)(=O)Cc2cccc(C(=O)O)c2)cc1 [compound 50] |
| < 1000 nM | > 1000 nM | < 10 nM | < 100 nM | – | – | N=C(N)c1ccc(CNC(=O)[C@H](Cc2c[nH]cn2)NC(=O)[C@@H](CCCc2ccccc2)NS(=O)(=O)Cc2cccc(C(=O)O)c2)cc1 [compound 33] |
| < 100 nM | < 1000 nM | < 10 nM | < 10 nM | – | – | N=C(N)c1ccc(CNC(=O)[C@H](CCc2ccccc2)NC(=O)[C@@H](CCCc2ccccc2)NS(=O)(=O)Cc2cccc(C(=O)O)c2)cc1 [compound 36] |
| < 1000 nM | < 100 nM | < 10 nM | < 10 nM | – | – | N#Cc1cccc(C[C@@H](NS(=O)(=O)Cc2ccccc2)C(=O)N[C@@H](CCc2ccncc2)C(=O)NCc2ccc(C(=N)N)cc2)c1 [compound 45] |
| < 1000 nM | < 100 nM | < 100 nM | < 100 nM | – | – | CC(C)(C)OC[C@@H](NS(=O)(=O)Cc1ccccc1)C(=O)N[C@@H](CCc1cccc(CN)c1)C(=O)NCc1ccc(C(=N)N)cc1 [compound 73] |
| < 1000 nM | < 100 nM | < 10 nM | < 100 nM | – | – | N=C(N)c1ccc(CNC(=O)[C@H](CCc2ccc(CN)cc2)NC(=O)[C@@H](CCCc2ccccc2)NS(=O)(=O)Cc2ccccc2)cc1 [compound 31] |
| < 100 nM | > 1000 nM | < 10 nM | < 10 nM | – | – | COC(=O)c1cccc(CS(=O)(=O)N[C@H](COC(C)(C)C)C(=O)N[C@@H](Cc2cccc(CN)c2)C(=O)NCc2ccc(C(=N)N)cc2)c1 [compound 66] |
| < 10 nM | < 100 nM | < 10 nM | < 10 nM | – | – | N=C(N)c1ccc(CNC(=O)[C@H](CCc2ccccc2)NC(=O)[C@@H](CCCc2cc[n+]([O-])cc2)NS(=O)(=O)Cc2ccccc2)cc1 [compound 53] |
| < 100 nM | < 100 nM | < 10 nM | < 10 nM | – | – | N=C(N)c1ccc(CNC(=O)[C@H](Cc2cccc(CN)c2)NC(=O)[C@@H](Cc2cccc3ccccc23)NS(=O)(=O)Cc2ccccc2)cc1 [compound 15] |
| < 1000 nM | < 1000 nM | < 10 nM | < 10 nM | < 5 nM | – | N=C(N)c1ccc(CNC(=O)[C@H](CCc2ccccc2)NC(=O)[C@@H](CCCc2ccccc2)NS(=O)(=O)Cc2ccc(C(=O)O)cc2)cc1 [compound 35] |
| < 100 nM | < 1000 nM | < 10 nM | < 10 nM | < 5 nM | – | N=C(N)c1ccc(CNC(=O)[C@H](Cc2cccc(CN)c2)NC(=O)[C@@H](Cc2ccc(-c3ccccc3)cc2)NS(=O)(=O)Cc2ccccc2)cc1 [compound 14] |
| < 1000 nM | < 100 nM | < 10 nM | < 10 nM | – | – | CC(C)(C)OC[C@@H](NS(=O)(=O)Cc1ccccc1)C(=O)N[C@@H](CCc1ccc(C(=N)N)cc1)C(=O)NCc1ccc(C(=N)N)cc1 [compound 77] |
| < 100 nM | < 100 nM | < 100 nM | < 100 nM | – | – | N=C(N)c1ccc(CNC(=O)[C@H](CCc2ccncc2)NC(=O)[C@@H](CCc2ccccc2)NS(=O)(=O)Cc2ccccc2)cc1 [compound 44] |

From patent publication US8410310B2, “Trypsin-like serine protease inhibitors, and their preparation and use” (The Medicines Company (Leipzig) GmbH, priority 2006, dated 2013)
